The source of these data is patent publication US8962596B2 (Array BioPharma Inc., priority 2010, dated 2015).

As a reminder, the IC50 is the midpoint of a concentration-inhibition curve. Low readings indicate greater potency, high ones weaker potency.

Common to all, as to type: biochemical
The target of one test is T1, Human Tyk2 kinase domain (Homo sapiens, UniProt P29597).
T1 construct: comprising amino acids 886 to 1187 with 10 additional histidine residues; 10xHis (histidine tag) (C, cleaved yes); made in house
T1 sequence (P29597 886-1187): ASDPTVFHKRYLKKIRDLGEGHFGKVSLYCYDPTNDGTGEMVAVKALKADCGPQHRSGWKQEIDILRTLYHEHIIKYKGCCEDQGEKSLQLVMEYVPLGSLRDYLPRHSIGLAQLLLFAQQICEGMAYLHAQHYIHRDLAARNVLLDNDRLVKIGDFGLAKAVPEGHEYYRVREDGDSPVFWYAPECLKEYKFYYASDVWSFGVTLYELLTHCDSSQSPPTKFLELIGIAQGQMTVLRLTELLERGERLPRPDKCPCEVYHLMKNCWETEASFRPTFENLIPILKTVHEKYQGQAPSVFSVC
Nature of the test: Tyk2 Inhibition Assay (Omnia kinase fluorescence peptide substrate assay). The note with it: averaged IC50 ranges; assay of Example A; 10 μM (Km app) or 1 mM ATP, 2 nM Tyk2. In short, it runs like this:
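2 nM His-tag-cleaved kinase domain (aa 886–1187) with 8 μM Omnia Y12 peptide, 10 μM (Km app) or 1 mM ATP, pH 7.4 HEPES/10 mM MgCl2, 2% DMSO. Fluorescence (ex 360/em 485 nm) every 50 s for 45 min; IC50 from 4-parameter fit of POC, top dose 10 μM.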

A further test has as its target T2, JAK1 (Homo sapiens, UniProt P23458).
T2 construct: purchased Invitrogen Corporation, Carlsbad, Calif; PV4775
Description: JAK1 Inhibition Assay (Omnia kinase fluorescence peptide substrate assay). Particulars: averaged IC50 ranges; assay of Example B; 40 μM (Km app) or 1 mM ATP, 15 nM JAK1.

A further test addresses T3, JAK2 (Homo sapiens, UniProt O60674).
T3 construct: purchased Invitrogen Corporation, Carlsbad, Calif; PV4288
Description: JAK2 Inhibition Assay (Omnia kinase fluorescence peptide substrate assay). Particulars: averaged IC50 ranges; assay of Example C; 25 μM (Km app) or 1 mM ATP, 5 nM JAK2. In short, it runs like this: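 A 10-point, 3-fold compound series (top 10 μM, 2% DMSO) was tested against 5 nM JAK2 with 10 μM Omnia Y7 substrate and either 1 mM or 25 μM (Km app) ATP. Buffer: pH 7.4 HEPES, MgCl2, Triton X-100, DTT. Sox fluorescence was monitored kinetically for 45 min; IC50 is the concentration giving 50 POC on a 4-parameter fit.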

Another test has as its target T4, JAK3 (Homo sapiens, UniProt P52333).
T4 construct: purchased Invitrogen Corporation, Carlsbad, Calif; PV4080
T4 sequence (P52333 1-1124): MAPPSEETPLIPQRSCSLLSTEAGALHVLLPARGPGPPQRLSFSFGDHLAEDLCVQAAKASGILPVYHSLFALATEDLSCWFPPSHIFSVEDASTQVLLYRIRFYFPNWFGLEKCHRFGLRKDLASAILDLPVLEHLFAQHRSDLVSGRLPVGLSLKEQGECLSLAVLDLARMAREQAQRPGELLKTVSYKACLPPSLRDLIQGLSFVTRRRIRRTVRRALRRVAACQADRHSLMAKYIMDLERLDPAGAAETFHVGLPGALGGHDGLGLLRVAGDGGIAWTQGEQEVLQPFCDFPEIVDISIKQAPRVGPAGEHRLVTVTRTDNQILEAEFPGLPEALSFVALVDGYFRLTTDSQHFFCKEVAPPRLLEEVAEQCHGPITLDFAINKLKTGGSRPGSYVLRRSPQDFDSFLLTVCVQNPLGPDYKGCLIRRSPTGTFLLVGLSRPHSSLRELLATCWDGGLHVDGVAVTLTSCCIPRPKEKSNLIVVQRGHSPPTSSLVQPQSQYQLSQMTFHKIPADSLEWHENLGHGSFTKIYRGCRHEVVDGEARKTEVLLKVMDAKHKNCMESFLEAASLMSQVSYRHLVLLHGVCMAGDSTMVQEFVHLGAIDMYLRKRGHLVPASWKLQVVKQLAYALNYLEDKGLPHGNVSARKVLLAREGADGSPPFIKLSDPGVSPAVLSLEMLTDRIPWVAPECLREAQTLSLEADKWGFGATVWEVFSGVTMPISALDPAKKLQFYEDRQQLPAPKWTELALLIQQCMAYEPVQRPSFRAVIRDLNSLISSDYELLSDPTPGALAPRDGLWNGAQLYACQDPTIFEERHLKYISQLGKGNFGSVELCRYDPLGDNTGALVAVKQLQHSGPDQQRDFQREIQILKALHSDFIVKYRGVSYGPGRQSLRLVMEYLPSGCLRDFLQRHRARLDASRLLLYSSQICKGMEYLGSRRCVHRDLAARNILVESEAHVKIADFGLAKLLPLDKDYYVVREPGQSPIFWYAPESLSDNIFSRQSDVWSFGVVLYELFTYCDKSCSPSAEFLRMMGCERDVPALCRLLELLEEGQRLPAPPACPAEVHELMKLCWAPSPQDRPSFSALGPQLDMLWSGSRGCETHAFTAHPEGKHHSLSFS
Description: JAK3 Inhibition Assay (Omnia kinase fluorescence peptide substrate assay). Particulars: averaged IC50 ranges; assay of Example D; 10 μM (Km app) or 1 mM ATP, 2.5 nM JAK3. In short, it runs like this:
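Kinase at 2.5 nM with 10 µM Omnia Y7 peptide and 10 µM (Km app) or 1 mM ATP in 25 mM HEPES pH 7.4, 10 mM MgCl2, 1 mM DTT, 0.01% Triton X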

Structures are written as SMILES. Counter-ions that a name gives are not always drawn.

T3 sequence (O60674 whole entry): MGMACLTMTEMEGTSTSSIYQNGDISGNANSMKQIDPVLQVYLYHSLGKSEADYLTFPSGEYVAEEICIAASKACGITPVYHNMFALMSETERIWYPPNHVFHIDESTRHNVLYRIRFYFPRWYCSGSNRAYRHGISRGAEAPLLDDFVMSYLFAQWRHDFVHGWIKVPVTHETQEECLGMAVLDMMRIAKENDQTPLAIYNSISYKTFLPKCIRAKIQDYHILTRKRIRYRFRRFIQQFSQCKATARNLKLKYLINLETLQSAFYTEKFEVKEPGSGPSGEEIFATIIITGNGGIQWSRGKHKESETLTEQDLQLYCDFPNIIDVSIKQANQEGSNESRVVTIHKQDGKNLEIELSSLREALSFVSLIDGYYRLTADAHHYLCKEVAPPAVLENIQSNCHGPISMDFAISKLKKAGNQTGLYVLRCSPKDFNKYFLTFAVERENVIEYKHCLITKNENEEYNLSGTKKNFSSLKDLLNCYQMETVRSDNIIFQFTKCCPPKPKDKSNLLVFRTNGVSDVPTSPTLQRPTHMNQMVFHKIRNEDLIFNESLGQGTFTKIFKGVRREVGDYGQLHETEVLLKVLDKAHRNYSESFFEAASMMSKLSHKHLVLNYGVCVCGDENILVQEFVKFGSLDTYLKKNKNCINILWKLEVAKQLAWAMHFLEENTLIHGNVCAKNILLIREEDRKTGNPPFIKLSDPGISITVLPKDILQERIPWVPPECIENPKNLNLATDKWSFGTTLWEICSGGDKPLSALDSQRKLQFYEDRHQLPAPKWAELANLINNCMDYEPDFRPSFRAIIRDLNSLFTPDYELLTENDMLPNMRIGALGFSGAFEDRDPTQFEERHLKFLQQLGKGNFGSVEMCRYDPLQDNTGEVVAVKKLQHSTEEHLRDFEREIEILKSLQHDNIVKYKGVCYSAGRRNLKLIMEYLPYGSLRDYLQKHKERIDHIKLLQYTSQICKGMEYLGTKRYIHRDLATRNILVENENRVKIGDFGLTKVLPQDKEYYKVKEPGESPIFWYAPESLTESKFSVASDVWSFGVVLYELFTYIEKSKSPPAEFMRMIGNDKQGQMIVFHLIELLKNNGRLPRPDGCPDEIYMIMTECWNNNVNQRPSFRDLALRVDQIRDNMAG
T2 sequence (P23458 whole entry): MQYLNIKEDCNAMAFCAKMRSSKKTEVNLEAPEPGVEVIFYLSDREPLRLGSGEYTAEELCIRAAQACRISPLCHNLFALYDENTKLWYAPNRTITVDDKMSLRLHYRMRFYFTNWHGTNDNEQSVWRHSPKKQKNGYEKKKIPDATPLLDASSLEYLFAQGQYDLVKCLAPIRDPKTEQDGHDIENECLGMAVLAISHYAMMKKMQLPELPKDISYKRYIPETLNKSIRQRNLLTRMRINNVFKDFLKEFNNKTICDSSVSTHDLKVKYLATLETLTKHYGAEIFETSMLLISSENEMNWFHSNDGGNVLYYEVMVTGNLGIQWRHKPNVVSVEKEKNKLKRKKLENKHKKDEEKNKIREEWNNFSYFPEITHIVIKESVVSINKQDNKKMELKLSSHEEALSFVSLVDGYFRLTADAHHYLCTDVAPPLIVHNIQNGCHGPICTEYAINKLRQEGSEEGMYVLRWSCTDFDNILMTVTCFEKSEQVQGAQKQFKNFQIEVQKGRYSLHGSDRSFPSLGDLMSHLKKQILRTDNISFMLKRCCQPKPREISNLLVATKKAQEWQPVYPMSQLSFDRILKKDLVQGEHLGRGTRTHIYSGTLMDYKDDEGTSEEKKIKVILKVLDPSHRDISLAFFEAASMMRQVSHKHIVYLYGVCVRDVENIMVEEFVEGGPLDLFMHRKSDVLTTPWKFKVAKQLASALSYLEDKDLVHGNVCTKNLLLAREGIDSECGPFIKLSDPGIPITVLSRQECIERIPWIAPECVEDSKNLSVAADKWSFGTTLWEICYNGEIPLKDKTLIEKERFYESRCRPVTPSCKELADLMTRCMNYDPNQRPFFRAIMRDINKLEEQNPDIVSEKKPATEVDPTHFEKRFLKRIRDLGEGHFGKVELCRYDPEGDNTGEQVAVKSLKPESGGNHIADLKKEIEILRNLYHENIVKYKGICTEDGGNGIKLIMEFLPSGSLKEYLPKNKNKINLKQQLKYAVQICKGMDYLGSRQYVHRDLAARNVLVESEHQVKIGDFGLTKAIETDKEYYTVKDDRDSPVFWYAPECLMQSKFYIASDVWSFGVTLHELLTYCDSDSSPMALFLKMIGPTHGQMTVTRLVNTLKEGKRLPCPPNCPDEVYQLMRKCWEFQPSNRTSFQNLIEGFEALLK

For `Cn1cc(-c2cc3nccn3c(-c3ccn(C4(CC#N)CNC4)c3)n2)cn1` [Example 127, 2-(3-(3-(7-(1-Methyl-1H-pyrazol-4-yl)imidazo[1,2-c]pyrimidin-5-yl)-1H-pyrrol-1-yl)azetidin-3-yl)acetonitrile trifluoroacetate], the IC50 against Human Tyk2 kinase domain is 10 to 100 nM; at JAK1, 100 to 1000 nM; on JAK2, 100 to 1000 nM; against JAK3, above 1000 nM.

For `N#CCC(C1CC1)n1cc(-c2nc(-c3cnn(C4CCOCC4)c3)cc3nccn23)cn1` (centres unmarked) [Example 36, 3-cyclopropyl-3-(4-(7-(1-(tetrahydro-2H-pyran-4-yl)-1H-pyrazol-4-yl)imidazo[1,2-c]pyrimidin-5-yl)-1H-pyrazol-1-yl)propanenitrile], the IC50 against Human Tyk2 kinase domain is below 10 nM; at JAK1, 100 to 1000 nM; against JAK2, 10 to 100 nM; on JAK3 it was 100 to 1000 nM.

For `CC(=O)N1CCC(CC#N)(n2cc(-c3nc(-c4cnn(C)c4)cc4nccn34)cn2)C1` (centres unmarked) [Example 134, 2-(1-acetyl-3-(4-(7-(1-methyl-1H-pyrazol-4-yl)imidazo[1,2-c]pyrimidin-5-yl)-1H-pyrazol-1-yl)pyrrolidin-3-yl)acetonitrile], the IC50 is 100 to 1000 nM on Human Tyk2 kinase domain, above 1000 nM on JAK1, 100 to 1000 nM against JAK2 and above 1000 nM at JAK3.

In the case of `Cc1cn(-c2cc3nccn3c(-c3cnn(C(CC#N)C4CC4)c3)n2)cn1` (centres unmarked) [Example 46, 3-Cyclopropyl-3-(4-(7-(4-methyl-1H-imidazol-1-yl)imidazo[1,2-c]pyrimidin-5-yl)-1H-pyrazol-1-yl)propanenitrile], the 50% inhibitory concentration (IC50) was 10 to 100 nM against Human Tyk2 kinase domain, above 1000 nM against JAK1, 100 to 1000 nM at JAK2 and above 1000 nM against JAK3.

`Cn1cc(-c2cc3nccn3c(-c3ccn(C4(CC#N)CN(CC(F)(F)F)C4)c3)n2)cn1` [Example 128, 2-(3-(3-(7-(1-Methyl-1H-pyrazol-4-yl)imidazo[1,2-c]pyrimidin-5-yl)-1H-pyrrol-1-yl)-1-(2,2,2-trifluoroethyl)azetidin-3-yl)acetonitrile]: the IC50 on Human Tyk2 kinase domain was below 10 nM; against JAK1, 100 to 1000 nM; against JAK2, 10 to 100 nM; on JAK3 it was above 1000 nM.

For the compound `Cn1cc(-c2cc3nccn3c(-c3cnn(C4(CC#N)CN(CC5CCOCC5)C4)c3)n2)cn1` [Example 89, 2-(3-(4-(7-(1-methyl-1H-pyrazol-4-yl)imidazo[1,2-c]pyrimidin-5-yl)-1H-pyrazol-1-yl)-1-((tetrahydro-2H-pyran-4-yl)methyl)azetidin-3-yl)acetonitrile], the concentration for half-maximal inhibition (IC50) against Human Tyk2 kinase domain is 100 to 1000 nM; at JAK1 it was above 1000 nM; at JAK2 it was above 1000 nM; at JAK3, above 1000 nM.

Turning to `Cn1cc(-c2cc3nccn3c(-c3cnn(C4(CC#N)CN(CC(F)(F)C(F)(F)F)C4)c3)n2)cn1` [Example 70, 2-(3-(4-(7-(1-Methyl-1H-pyrazol-4-yl)imidazo[1,2-c]pyrimidin-5-yl)-1H-pyrazol-1-yl)-1-(2,2,3,3,3-pentafluoropropyl)azetidin-3-yl)acetonitrile], the IC50 on Human Tyk2 kinase domain is below 10 nM; on JAK1, 10 to 100 nM; on JAK2, 10 to 100 nM; against JAK3, 100 to 1000 nM.

As for `N#CCC(C1CCCC1)n1cc(-c2nc(-c3ccc(N4CCOCC4)cc3)cc3nccn23)cn1` (single isomer, unassigned) [Example 115, 3-cyclopentyl-3-(4-(7-(4-morpholinophenyl)imidazo[1,2-c]pyrimidin-5-yl)-1H-pyrazol-1-yl)propanenitrile], the IC50 at Human Tyk2 kinase domain is below 10 nM; on JAK1, below 10 nM; on JAK2 it was below 10 nM; at JAK3 it was 100 to 1000 nM.

For the compound `Cn1cc(-c2cc3nccn3c(-c3cnn(C4(CC#N)CN(CC(F)(F)C(F)F)C4)c3)n2)cn1` [Example 80, 2-(3-(4-(7-(1-methyl-1H-pyrazol-4-yl)imidazo[1,2-c]pyrimidin-5-yl)-1H-pyrazol-1-yl)-1-(2,2,3,3-tetrafluoropropyl)azetidin-3-yl)acetonitrile], the IC50 against Human Tyk2 kinase domain is below 10 nM; at JAK1, 100 to 1000 nM; against JAK2, 10 to 100 nM; against JAK3, above 1000 nM.

For `Cn1cc(-c2cc3nccn3c(-c3cnn(C4(CC#N)CN(C(CF)CF)C4)c3)n2)cn1` [Example 79, 2-(1-(1,3-difluoropropan-2-yl)-3-(4-(7-(1-methyl-1H-pyrazol-4-yl)imidazo[1,2-c]pyrimidin-5-yl)-1H-pyrazol-1-yl)azetidin-3-yl)acetonitrile], the IC50 is 10 to 100 nM against Human Tyk2 kinase domain, above 1000 nM on JAK1, 100 to 1000 nM at JAK2 and above 1000 nM on JAK3.

With `Cn1cc(-c2cc3nccn3c(-c3cnn(C4(CC#N)CCCCC4)c3)n2)cn1` [Example 22, 2-(1-(4-(7-(1-methyl-1H-pyrazol-4-yl)imidazo[1,2-c]pyrimidin-5-yl)-1H-pyrazol-1-yl)cyclohexyl)acetonitrile], the IC50 against Human Tyk2 kinase domain is 10 to 100 nM; at JAK1, 100 to 1000 nM; against JAK2, 100 to 1000 nM; at JAK3 it was above 1000 nM.

For `Cn1cc(-c2cc3nccn3c(-c3ccn(C(CC#N)C4CC4)n3)n2)cn1` (centres unmarked) [Example 132, 3-Cyclopropyl-3-(3-(7-(1-methyl-1H-pyrazol-4-yl)imidazo[1,2-c]pyrimidin-5-yl)-1H-pyrazol-1-yl)propanenitrile], the IC50 against Human Tyk2 kinase domain was 10 to 100 nM; on JAK1, above 1000 nM; on JAK2 it was 100 to 1000 nM; against JAK3 it was 100 to 1000 nM.

With `Cn1cc(-c2cc3nccn3c(-c3cnn(C4(CC#N)CCN(C(=O)OC(C)(C)C)CC4)c3)n2)cn1` [Example 21, tert-butyl 4-(cyanomethyl)-4-(4-(7-(1-methyl-1H-pyrazol-4-yl)imidazo[1,2-c]pyrimidin-5-yl)-1H-pyrazol-1-yl)piperidine-1-carboxylate], the half-maximal inhibitory concentration (IC50) was 100 to 1000 nM on Human Tyk2 kinase domain, above 1000 nM at JAK1, above 1000 nM against JAK2 and above 1000 nM against JAK3.

As to `Cn1cc(-c2cc3nccn3c(-c3cnn(C4(CC#N)CC5(CCOCC5)C4)c3)n2)cn1` [Example 150, 2-(2-(4-(7-(1-methyl-1H-pyrazol-4-yl)imidazo[1,2-c]pyrimidin-5-yl)-1H-pyrazol-1-yl)-7-oxaspiro[3.5]nonan-2-yl)acetonitrile], the 50% inhibitory concentration (IC50) is below 10 nM against Human Tyk2 kinase domain, 100 to 1000 nM against JAK1, 10 to 100 nM against JAK2 and above 1000 nM against JAK3.
